The text below walks through data of patent publication US12527874B2, “Bioorthogonal compositions” (TAMBO, INC., priority 2015, dated 2026).

SMILES strings stand for the structures.

The conditions of series [1]: xenograft mice, HMT injected.
The conditions of series [2]: 3 days after the last treatment, after injection of HMT.
Experimental: Samples were collected 3 days after the last treatment. Data are means±SD (n=2).
Reticulocyte measurements. Two mice per condition were anesthetized with isoflurane anesthesia 3 days after the last treatment during the nadir of reticulocyte decrease. (27) Blood was collected by cardiac puncture in a syringe containing lithium heparin to prevent coagulation. RBC and reticulocyte concentrations were determined the same day using a DEXX ProCyte Dx Hematology Analyzer (IDEXX Laboratories, Inc.).
Series [3] has as its system human soft tissue sarcoma (HT-1080) xenografts. As to the kind of experiment: Inhibition of HT1080 xenograft growth (soft tissue sarcoma model, HMT injected near tumor). The class given is in vivo, mice. On the procedure: HMT was injected near the palpable soft tissue sarcoma tumors after 18 days when their size reached an average of 195 mm3 (range, 90-500 mm3). The mice were separated into two cohorts: (i) 3 intravenous doses of 14 μmoles/kg of doxorubicin every 4 days (maximum tolerable dose), (27, 49) or (ii) daily doses of 14 μmoles/kg of doxorubicin for 10 days (FIG. 18B). Tumor volumes were measured twice a week for 13 weeks (FIG. 18A). No further therapies were given to the subjects 28 days post tumoral implantation (dpi).

A further series concerns HT1080 cells. As to the kind of experiment: MTT cytotoxicity assay. The conditions noted are these: read-out: 50% growth inhibitory concentration (IC50), 48 h treatment followed by additional 48 h in DMEM. On the technique in general: Formazan colour is commonly taken as a measure of viable cells.

Experimental for HT1080 cells: Cells were treated with the drug or the pro-drug for 48 h, followed by additional 48 h in DMEM, prior to measuring their viability.
HT1080 cells were purchased from ATCC (cat. #CCL-121), and propagated in Dulbecco's modified Eagle's medium (DMEM; Meditech, Inc. Corning, Manassas, VA) containing 5% fetal bovine serum (FBS; HyClone, Logan Utah), supplemented with 100 U/ml penicillin, and 100 μg/ml streptomycin (Life Tech Corp., Grand Island, NY) at 37° C. in a 5% CO2 incubator.
Day one: using 96-well format, plated˜100 cells/well in 100 μL DMEM and incubated for 24 h. […] Day four: the medium was replaced with 100 μL of fresh DMEM and the cells were incubated for 48 h. Day six: DMEM was removed and the cells were incubated with 100 μL of MTT solution (0.6 mg/mL in DMEM) per well for 4 h at 37° C. The MTT solution was then replaced with 100 μL of DMSO containing 4% aqueous ammonia per well to dissolve the purple formazan crystals. After 30 min, the absorbance of each well at 550 nm was recorded using BioTek Synergy HT multi detection microplate reader. Results were averaged from three independent arrays of triplicate experiments.

Turning to `COc1cccc2c1C(=O)c1c(O)c3c(c(O)c1C2=O)C[C@@](O)(C(=O)CO)C[C@@H]3O[C@H]1C[C@H](N)[C@H](O)[C@H](C)O1` [doxorubicin], the body weight lost entry in series [1] is listed as “about 20%”. In addition, the reticulocyte counts result in series [2] is on record as “dramatic decrease in reticulocytes”. The median tumor size result is “undetectable” in series [3] (2 weeks after the last treatment dose (40 dpi), HMT near tumor) and “greater than 2000 mm^3” in series [3] (30 days after the last treatment dose (60 dpi), HMT near tumor). The “mice with a mild response” value in series [3] (40 dpi, HMT near tumor) is recorded as 1/5. For the same compound, the “mice that reached the study endpoint of 2000 mm3” value in series [3] (by 88 dpi) is on record as 5/5. In the series on HT1080 cells, the IC50 was 18 nM.
